Test results reported in patent publication US6287840A (Axys Pharmaceuticals, Inc., priority 1999, dated 2001).
Peptide text beside a SMILES is read from it. * marks the point of attachment. X1 = CS(=O)(=O)C=CC(CC(=O)O)N*

Experiments:
Cloned cathepsin S = molecular target: T1, Cloned cathepsin S (Homo sapiens, UniProt P25774); assay: Inhibition of cathepsin S, Z-Val-Val-Arg-AMC fluorescence progress curves; type: biochemical; conditions: for kobs /[I]* (approximate second-order inactivation constant) / kinact/KI: values marked *; for kinact/KI: read-out: kobs /[I]* (approximate second-order inactivation constant)
T1 construct: made in house
T1 sequence (P25774 115-331): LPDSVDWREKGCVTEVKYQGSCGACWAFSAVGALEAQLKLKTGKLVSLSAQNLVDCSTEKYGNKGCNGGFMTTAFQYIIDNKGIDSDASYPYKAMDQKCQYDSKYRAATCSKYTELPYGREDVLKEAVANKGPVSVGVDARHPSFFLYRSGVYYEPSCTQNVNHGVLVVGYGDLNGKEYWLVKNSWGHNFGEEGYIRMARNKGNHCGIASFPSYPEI
Procedure: Stock solutions of the various inhibitors (10 mM) were made in DMF; dilutions were made in the same solvent. Cloned cathepsin S, (see Bromme et al., J. Biol. Chem. 268(&): 4832-4838 (1993)) was less than 1 nM in the assay. The assay buffer contained 100 mM phosphate at pH 6.5, 0.01% Triton, 2.5 mM dithiothreitol (DTT), and 2.5 mM ethylenediaminetetraacetic acid (EDTA). The substrate for cathepsin S was 10 μM Z-Val-Val-Arg-AMC (carbobenzyloxyvalinylvalinylarginylaminomethylcoumarin). The assays were initiated at 25° C. by addition of enzyme to 2 mL of assay buffer containing the substrate and the various inhibitors (30-0.001 μM). The increase in fluorescence at 460 nm with excitation at 380 nm was followed with time. Inactivation of cathepsin S was indicated by a downward curve in the increase in fluorescence with time. In the absence of inhibitors, the enzymatic production of free AMC was linear throughout the time course of inactivation examined. Data points were collected over at least 3 half-times of inactivation. The inhibition progress curves were analyzed using non-linear curve fitting software to compute the kobs values. Approximate second-order inactivation constants (kobs /[I]) were calculated for all compounds. For selected inhibitors, plots of 1/[I] vs. 1/kobs yielded the true constants kirr, KI, and kirr /KI, and were corrected for the presence of substrate by dividing KI (app.) by {1+[S]/Km}.

[1] = molecular target: T2, Cathepsin B from human placenta (Homo sapiens, UniProt P07858); assay: Inhibition of cathepsin B, Z-Arg-Arg-AMC fluorescence progress curves; type: biochemical; conditions: for k/KI (kirr/KI): values without asterisk; for k/KI (kirr/KI) / kobs /[I]* (approximate second-order inactivation constant): 25° C., pH 6.2; for kobs /[I]* (approximate second-order inactivation constant): values marked *
T2 construct: Cathepsin B from human placenta, obtained from Sigma; purchased Sigma; host or cells: human placenta (tissue)
Procedure: Stock solutions of the various inhibitors (10 mM) were made in DMF; dilutions were made in the same solvent. Cathepsin B from human placenta, obtained from Sigma, was approximately 10 nM in the assay. The assay buffer contained 50 mM phosphate at pH 6.2, 2.5 mM dithiothreitol (DTT), and 2.5 mM ethylenediaminetetraacetic acid (EDTA). The substrate for cathepsin B was 50 μM Z-Arg-Arg-AMC (carbobenzyloxyarginylarginylaminomethylcoumarin). The assays were initiated at 25° C. by addition of enzyme to 2 mL of assay buffer containing the substrate and the various inhibitors (30-0.001 (μM). The increase in fluorescence at 460 nm with excitation at 380 nm was followed with time, and the assay was linear throughout the range observed. Inactivation of cathepsin B was indicated by a downward curve in the increase in fluorescence with time. In the absence of inhibitors, the enzymatic production of free AMC was linear throughout the time course of inactivation examined. Data points were collected over at least 3 half-times of inactivation, and in duplicate. The inhibition progress curves were analyzed using non-linear curve fitting software to compute the kobs values. Approximate second-order inactivation constants (kobs /[I]) were calculated for all compounds. For selected inhibitors, plots of 1/[I] vs. 1/kobs yielded the true constants kirr, KI, and kirr /KI, and were corrected for the presence of substrate by dividing KI (app.) by {1+[S]/Km }.

[2] = system: Leishmania donovani amastigote infected mouse peritoneal macrophages; assay: In vitro antiprotozoal activity, Leishmania donovani; type: cell-based; parameters: key to percentage inhibition, L. donovani: the term "T" indicates the molecule to have displayed cytotoxicity
Procedure: (§1) In this table, the in vitro antiprotozoal activities of the indicated compounds were measured as percentage inhibition of Leishmania donovani amastigote infecteda mouse peritoneal macrophages, Trypanosoma cruzi amastigote infected macrophages, and Trypanosoma brucei extracellular bloodstream forms.

[3] = system: Trypanosoma cruzi amastigote infected macrophages; assay: In vitro antiprotozoal activity, Trypanosoma cruzi; type: cell-based
Procedure: as §1

[4] = system: Trypanosoma brucei extracellular bloodstream forms; assay: In vitro antiprotozoal activity, Trypanosoma brucei; type: cell-based
Procedure: as §1

cruzain, from T. cruzi = cruzain, from T. cruzi (Trypanosoma cruzi, UniProt P25779); assay: Inhibition of cruzain, as for cathepsin L; type: biochemical; conditions: for kobs /[I]* (approximate second-order inactivation constant): values marked *
Sequence of cruzain, from T. cruzi (P25779 123-337 limits assumed): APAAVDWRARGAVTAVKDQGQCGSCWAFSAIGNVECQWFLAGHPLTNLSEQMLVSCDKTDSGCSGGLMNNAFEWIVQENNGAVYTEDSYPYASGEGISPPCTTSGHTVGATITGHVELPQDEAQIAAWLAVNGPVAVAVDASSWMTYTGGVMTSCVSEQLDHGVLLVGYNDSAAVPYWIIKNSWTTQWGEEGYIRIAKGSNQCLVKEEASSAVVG
Procedure: (§2) Stock solutions of the various inhibitors (10 mM) were made in DMF; dilutions were made in the same solvent. Cathepsin L from rat liver, (see Mason et al., Biochem. J. 226:233-241 (1985)) was approximately 1 nM in the assay. The assay buffer contained 50 mM phosphate at pH 6:2, 2.5 mM dithiothreitol (DTT), and 2.5 mM ethylenediaminetetraacetic acid (EDTA). The substrate for cathepsin L was 5 μM Z-Phe-Arg-AMC (carbobenzyloxyphenylalanylarginylaminomethylcoumarin). The assays were initiated at 25° C. by addition of enzyme to 2 mL of assay buffer containing the substrate and the various inhibitors (30-0.001 μM). The increase in fluorescence at 460 nm with excitation at 380 nm was followed with time. Inactivation of cathepsin L was indicated by a downward curve in the increase in fluorescence with time. In the absence of inhibitors, the enzymatic production of free AMC was linear throughout the time course of inactivation examined. Data points were collected over at least 3 half-times of inactivation. The inhibition progress curves were analyzed using non-linear curve fitting software to compute the kobs values. Approximate second-order inactivation constants (kobs /[I]) were calculated for all compounds. For selected inhibitors, plots of 1/[I] vs. 1/kobs yielded the true constants kirr, KI, and kirr/KI and were corrected for the presence of substrate by dividing KI (app.) by (1+[S]/Km).
Inhibition of cruzain, from T. cruzi, (see Eakin et at., J. Biol. Chem. 268(9): 6115-6118 (1993)) proceeded exactly as for cathepsin L, outlined above, using an enzyme concentration of 1 nM.

[5] = molecular target: T3, Cathepsin L from rat liver (Rattus norvegicus, UniProt P07154); assay: Inhibition of cathepsin L, Z-Phe-Arg-AMC fluorescence progress curves; type: biochemical; conditions: for kobs /[I]* (approximate second-order inactivation constant): values marked *; for kobs /[I]* (approximate second-order inactivation constant) / k/KI (kirr/KI): 25° C., pH 6.2; for Ki: corrected for substrate; for k/KI (kirr/KI): values without asterisk
T3 construct: Cathepsin L from rat liver; from tissue; host or cells: rat liver
T3 sequence (P07154 114-288 limits assumed): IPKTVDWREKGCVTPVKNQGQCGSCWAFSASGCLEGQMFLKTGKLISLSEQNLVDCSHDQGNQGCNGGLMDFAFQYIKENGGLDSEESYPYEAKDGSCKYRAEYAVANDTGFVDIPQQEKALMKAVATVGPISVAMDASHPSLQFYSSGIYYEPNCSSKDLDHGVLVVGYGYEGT
T3 sequence (P07154 291-334 limits assumed): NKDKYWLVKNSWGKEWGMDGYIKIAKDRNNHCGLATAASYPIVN
Procedure: as §2

CC(C)C[C@H](NC(=O)OCc1ccccc1)C(=O)N[C@H](/C=C/S(=O)(=O)c1ccccc1)Cc1ccccc1
kobs /[I]* (approximate second-order inactivation constant) (Cloned cathepsin S; 25° C., pH 6.5): 3,000,000 M^-1 sec^-1

CC(=O)N[C@@H](CC(C)C)C(=O)N[C@@H](CC(C)C)C(=O)N[C@H](/C=C/S(=O)(=O)c1ccccc1)Cc1ccc(O)cc1 [Ac-Leu-Leu-TyrVSPh, (S)-(E)-3-(acetylleucylleucyl)amino-4-(4-hydroxyphenyl)-1-phenylsulfonyl-1-butene]
kinact/KI (Cloned cathepsin S; 25° C., pH 6.5): 100000 M⁻¹ s⁻¹

CC(=O)NC(Cc1ccc(O)cc1)C(=O)NC(Cc1ccc(O)cc1)C(=O)NC(C(=O)NC(C)C(=O)NC(C=CS(C)(=O)=O)CC(=O)O)C(C)C (stereo not drawn) [Ac-Tyr-Tyr-Val-Ala-AspVSMe] (Ac-YYVA-X1; configuration not given here)
k/KI (kirr/KI) [1]: 0 M⁻¹ s⁻¹

CN(C)S(=O)(=O)N[C@@H](Cc1ccccc1)C(=O)N[C@H](/C=C/S(=O)(=O)c1ccccc1)CCc1ccccc1 [DimSam-Phe-HphVSPh, (S)-(E)-3-(dimethylsulfamoylphenylalanyl)amino-5-phenyl-1-phenylsulfonyl-1-pentene]
kinact/KI (Cloned cathepsin S; 25° C., pH 6.5): 920000 M⁻¹ s⁻¹

Cl.NC(C=CS(=O)(=O)c1ccccc1)CCCCNC(=O)OCc1ccccc1 (stereo not drawn) [HCl.(e-Z)LysVSPh]
percentage inhibition, L. donovani ([2]; 3 uM): 100%
percentage inhibition, L. donovani ([2]; 10 uM): 100%
percentage inhibition, L. donovani ([2]; 30 uM): T
percentage inhibition, L. donovani ([2]; 90 uM): T
ED50, T. cruzi [3]: 18.34 µM
percentage inhibition, T. cruzi ([3]; 3 uM): 2.7%
percentage inhibition, T. cruzi ([3]; 10 uM): 10.6%
percentage inhibition, T. cruzi ([3]; 30 uM): 82.8%
percentage inhibition, T. cruzi ([3]; 90 uM): 97.8%
ED50, T. brucei [4]: 8 µM
percentage inhibition, T. brucei ([4]; 1 uM): 7.6%
percentage inhibition, T. brucei ([4]; 3 uM): 13%
percentage inhibition, T. brucei ([4]; 10 uM): 39.3%
percentage inhibition, T. brucei ([4]; 30 uM): 100%
percentage inhibition, T. brucei ([4]; 90 uM): 100%

Cl.NC(Cc1ccccc1)C(=O)NC(C=CS(=O)(=O)c1ccccc1)CCc1ccccc1 (stereo not drawn) [HCl.Phe-HphVSPh]
kobs /[I]* (approximate second-order inactivation constant) (Cloned cathepsin S; 25° C., pH 6.5): 35,000 M^-1 sec^-1
kobs /[I]* (approximate second-order inactivation constant) (cruzain, from T. cruzi): 14,600 M^-1 sec^-1

CS(=O)(=O)/C=C/[C@@H](N)Cc1ccccc1.Cl [HCl.PheVSMe]
percentage inhibition, L. donovani ([2]; 3 uM): 100%
percentage inhibition, L. donovani ([2]; 10 uM): 100%
percentage inhibition, L. donovani ([2]; 30 uM): 100%
percentage inhibition, L. donovani ([2]; 90 uM): 100%
percentage inhibition, T. cruzi ([3]; 3 uM): 0%
percentage inhibition, T. cruzi ([3]; 10 uM): 0%
percentage inhibition, T. cruzi ([3]; 30 uM): 0%
percentage inhibition, T. cruzi ([3]; 90 uM): 17.3%
percentage inhibition, T. brucei ([4]; 3 uM): 0%
percentage inhibition, T. brucei ([4]; 10 uM): 0%
percentage inhibition, T. brucei ([4]; 30 uM): 0%
percentage inhibition, T. brucei ([4]; 90 uM): 0%

O=C(N[C@@H](/C=C/S(=O)(=O)c1ccccc1)CCc1ccccc1)C(Cc1ccccc1)NC(=O)N1CCOCC1 (stereo partly drawn) [Mu-Phe-D-HphVSPh, (R)-(E)-3-(4-morpholinecarbonylphenylalanyl)amino-5-phenyl-1-phenylsulfonyl-1-pentene]
kobs /[I]* (approximate second-order inactivation constant) [5]: 4,500 M^-1 sec^-1
kobs /[I]* (approximate second-order inactivation constant) (Cloned cathepsin S; 25° C., pH 6.5): 68,500 M^-1 sec^-1

O=C(/C=C/[C@H](CCc1ccccc1)NC(=O)C(Cc1ccccc1)NC(=O)N1CCOCC1)NC(Cc1ccccc1)C(=O)O (stereo partly drawn) [Mu-Phe-HphVAM-PheOH, (S)-(E)-(N-phenylalanine)-4-(4-morpholinecarbonylphenylalanyl)amino-6-phenyl-2-hexenamide]
kobs /[I]* (approximate second-order inactivation constant) [1]: 600 M⁻¹ s⁻¹
kobs /[I]* (approximate second-order inactivation constant) (Cloned cathepsin S; 25° C., pH 6.5): 10,600 M^-1 sec^-1

O=C(NCCCC[C@@H](/C=C/S(=O)(=O)c1ccccc1)NC(=O)[C@H](Cc1ccccc1)NC(=O)N1CCOCC1)c1ccccc1 [Mu-Phe-Lys(Bz)VSPh, (S)-(E)-3-(4-morpholinecarbonylphenylalanyl)amino-7-benzoylamino-1-phenylsulfonyl-1-heptene]
kobs /[I]* (approximate second-order inactivation constant) [5]: 210,000 M^-1 sec^-1
kobs /[I]* (approximate second-order inactivation constant) (Cloned cathepsin S; 25° C., pH 6.5): 2,500,000 M^-1 sec^-1
kobs /[I]* (approximate second-order inactivation constant) (cruzain, from T. cruzi): 60,000 M^-1 sec^-1

O=C(NCCCC[C@@H](C=C(F)S(=O)(=O)c1ccccc1)NC(=O)[C@H](Cc1ccccc1)NC(=O)N1CCOCC1)OCc1ccccc1 [Mu-Phe-Lys(Z)fVSPh, (S)-7-(benzyloxycarbonyl)amino-3-(4-morpholinecarbonylphenylalanyl)amino-1-fluoro-1-phenylsulfonyl-1-heptene]
kobs /[I]* (approximate second-order inactivation constant) [1]: 2,000 M^-1 sec^-1
kobs /[I]* (approximate second-order inactivation constant) (Cloned cathepsin S; 25° C., pH 6.5): 10,700 M^-1 sec^-1

Br.CCOC(=O)/C=C/[C@H](CCCCN)NC(=O)[C@H](Cc1ccccc1)NC(=O)N1CCOCC1 [Mu-Phe-LysVEOEt.HBr, (S)-(E)-Ethyl 8-amino-4-(4-morpholinecarbonylphenylalanyl)amino-2octenoate hydrobromide]
kobs /[I]* (approximate second-order inactivation constant) [1]: 650 M⁻¹ s⁻¹
kirr [5]: 0.085 s⁻¹
Ki [5]: 24.2 µM
k/KI (kirr/KI) [5]: 3500 M⁻¹ s⁻¹

(S)-(E)-3-(4-morpholinecarbonyl-2-naphthylalanyl)amino-5-phenyl-1-phenylsulfonyl-1-pentene [Mu-Np-HphVSPh]
kobs /[I]* (approximate second-order inactivation constant) [1]: 86,000 M^-1 sec^-1
kobs /[I]* (approximate second-order inactivation constant) [5]: 1,000,000 M^-1 sec^-1
k/KI (kirr/KI) (cruzain, from T. cruzi; values without asterisk): 218,000 M^-1 sec^-1

(S)-(E)-3-(4-morpholinecarbonylphenylalanyl)amino-1-(4-bromophenylsulfonyl)-5-phenyl-1-pentene [Mu-Phe-HphVSPhBr]
kobs /[I]* (approximate second-order inactivation constant) [1]: 15,500 M^-1 sec^-1

(S)-(E)-Ethyl8-(benzyloxycarbonyl)amino-4-(4-morpholinecarbonylphenylalanyl)amino-2-octenoate [Mu-Phe-Lys(Z)VEOEt]
kirr [1]: 0.13 s⁻¹
Ki ([1]; corrected for substrate): 32 µM
k/KI (kirr/KI) [1]: 4100 M⁻¹ s⁻¹
kirr [5]: 0.87 s⁻¹
Ki [5]: 6.2 µM
k/KI (kirr/KI) [5]: 13,900 M^-1 sec^-1
kirr (Cloned cathepsin S): 0.13 s⁻¹
Ki (Cloned cathepsin S; corrected for substrate): 1.3 µM
k/KI (kirr/KI) (Cloned cathepsin S; values without asterisk, 25° C., pH 6.5): 100,000 M^-1 sec^-1

Boc-phenylalanyl-homophenylalanyl-p-nitrostyryl
kobs /[I]* (approximate second-order inactivation constant) (Cloned cathepsin S; 25° C., pH 6.5): 40,100 M^-1 sec^-1
